Experimental findings from patent US7399479B2, “Microemulsions, especially for skin or hair treatment” (Wella AG, priority 2004, dated 2008) are described below.

This data set concerns human keratinocyte cell line HaCaT. Description: Neutral Red Uptake (NRU) cytotoxicity test with HaCaT cells. The data set is classed as cell-based.

Description: NRU50 values are the NRU values used in the present invention. They characterize the concentration of a substance or composition, at which the up-take of the dye neutral red is reduced to about 50% in human keratinocyte cells. Neutral red (3-amino-7-dimethylamino-2-methyl phenazine hydrochloride) is a weak cationic dye, which easily diffuses from an outer medium through a cell membrane separating individual cells into the cell interior. Changes in the cell surface or the cell membrane by potentially harmful substances reduce the dye uptake and the retention of the dye in the cell. A high NRU50 value means a slight cell-damaging action and low cytotoxicity and is a hint of an improved eye compatibility of the tested substance or composition.
The neutral red (3-amino-7-dimethylamino-2-methyl phenazine hydrochloride) taken up by the cells exposed to the test substance is extracted and measured spectrophotometrically at 540 nm. Toxicological effects cause a reduction in the amount of taken-up neutral red in comparison to separate untreated control cells. The concentration of the test substance, which leads to a reduction of the up-taken and bound neutral red amount of about 50% in comparison to the control cells, is the NRU50-value.
The HaCaT cells are grown in Dulbecco's modified Eagle's medium with 2 mM L-glutamin, 10% (v/v) foetal calf serum (FCS), 100 IU penicillin and 100 μg/ml streptomycin added in an atmosphere having 95% humidity and 5% CO2.
In pretests an approximate NRU50 value is determined with 8 different concentrations of the test substance. On this basis eight suitable concentrations around these approximate values are selected for the final measurements. The measurement is repeated with an independent batch with equal concentrations. Sodium lauryl sulfate with concentrations of 50, 25, 10 and 1 μg/ml is used as reference substance.
Approximately 2*10^4 HaCaT cells in 250 μl growth medium per receptacle are placed in 60 central receptacles of microtiter plates each with 96 receptacles. The corner receptacles act as controls and contain only the growth medium. The plates are incubated for 24 hours at 37° C. in a moist atmosphere with 5% CO2 and 95% air. The culture medium is removed and either replaced by pure treatment medium or by treatment medium containing the various concentration of the test substance to be tested or the reference substance.
After an acting time of 24 hours the treatment medium is replaced by storage medium, which contains 50 μg/ml of neutral red. The plates are placed again in the incubator for three hours. After that the medium is removed, the cells washed with a fixative (1% formaldehyde, 1% calcium chloride) and 100 μl of an extraction solution (1% acetic acid in 50% ethanol) is added to each receptacle for dye extraction. After 20 minutes the absorption is measured at 540 nm with a microplate reader. Concentration/effectiveness diagrams are drawn or plotted, expressed as percent viability of the negative control cells (CC) relative to the respective test concentrations from the average values and after correction with the null value from the BC receptacles.

Turning to “PEG-40 Hydrogenated Castor Oil [CREMOPHOR® RH 410]”, the NRU50 came out at 188 µg/mL. Regarding Ceteareth-20 [EUMULGIN® B2], the NRU stood at 5.8 µg/mL.

“PEG-60 Hydrogenated Castor Oil [CREMOPHOR® CO60]”: the NRU50 is 203 µg/mL. The substance Oleth-5 [EUMULGIN® 05] had an NRU of 7.8 µg/mL. The same measure, in the same setting: for Oleth-20 [VOLPO® N20] the value was 6.2 µg/mL.
